Laboratory results published in ChEMBL document CHEMBL3585254, “Synthesis and structural characterization of natural benzofuranoids” (J Nat Prod, 2015).

Tested on: HL-60
Test: Growth inhibition of human HL60 cells
Format: functional, cell-based

- IC50: 0.13 µM
Compound: CC(C)=C1Oc2c(ccc(CC(C)O)c2CO)C1=O (stereo unspecified) [USTUSORANE A]
